In US20150105252A1, “SUBSTITUTED PYRAZOLES AS HERBICIDES” (E I DU PONT DE NEMOURS AND COMPANY, priority 2013, published 2015):

Assays:
foxtail, giant [1] = assay: Test C postemergence; format: in vivo, Setaria faberii; conditions: for Foxtail, Giant plant response rating: Postemergence, 31 g ai/ha, scale 0 to 100; for Plant response rating, Foxtail, Giant: postemergence
Description: (§1) Seeds of plant species selected from blackgrass (Alopecurus myosuroides), ryegrass, Italian (Italian ryegrass, Lolium multiflorum), wheat (winter wheat, Triticum aestivum), galium (catchweed bedstraw, Galium aparine), corn (Zea mays), crabgrass, large (large crabgrass, Digitaria sanguinalis), foxtail, giant (giant foxtail, Setaria faberii), johnsongrass (Sorghum halepense), lambsquarters (Chenopodium album), morningglory (Ipomoea coccinea), nutsedge, yellow (yellow nutsedge, Cyperus esculentus), pigweed (redroot pigweed, Amaranthus retroflexus), ragweed (common ragweed, Ambrosia elation), soybean (Glycine max), barnyardgrass (Echinochloa crus-galli), oilseed rape (Brassica napus), waterhemp (common waterhemp, Amaranthus rudis), oat, wild (wild oat, Avena fatua), kochia (Kochia scoparia), Surinam grass (Brachiaria decumbens), foxtail, green (green foxtail, Setaria viridis), goosegrass (Eleusine indica), bromegrass, downy (downy bromegrass, Bromus tectorum), nightshade (eastern black nightshade, Solanum ptycanthum), cocklebur (common cocklebur, Xanthium strumarium), cupgrass, woolly (woolly cupgrass, Eriochloa villosa), bermudagrass (Cynodon dactylon), sunflower, (common oilseed sunflower, Helianthus annuus), Russian thistle (Salsola kali), and velvetleaf (Abutilon theophrasti) were planted into a blend of loam soil and sand and treated preemergence with test chemicals formulated in a non-phytotoxic solvent mixture which included a surfactant.
(§2) At the same time, plants selected from these crop and weed species and also chickweed (common chickweed, Stellaria media), canarygrass (littleseed canarygrass, Phalaris minor), and deadnettle (henbit deadnettle, Lamium amplexicaule), were planted in pots containing Redi-Earth® planting medium (Scotts Company, 14111 Scottslawn Road, Marysville, Ohio 43041) comprising spaghnum peat moss, vermiculite, wetting agent and starter nutrients and treated with postemergence applications of test chemicals formulated in the same manner. Plants ranged in height from 2 to 18 cm (1- to 4-leaf stage) for postemergence treatments. Treated plants and controls were maintained in a greenhouse for 13 to 15 days, after which time all species were compared to controls and visually evaluated. Plant response ratings, summarized in Table C, are based on a scale of 0 to 100 where 0 is no effect and 100 is complete control. A dash (-) response means no test result.

corn = assay: Test A postemergence; format: in vivo, Zea mays; conditions: Postemergence, 1000 g ai/ha; visual rating after approx. 10 days, 0 to 100 scale (0 no effect, 100 complete control)
Outline: (§3)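 Seeds were sown in a loam soil–sand blend and given a directed soil spray preemergence; postemergence plants at 2–10 cm, one- to two-leaf stage, were sprayed with compound in non-phytotoxic solvent with surfactant. After about 10 days in a greenhouse, injury was visually rated against untreated controls (0 = no effect, 100 = complete control).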

crabgrass, large [2] = assay: Test A preemergence; format: in vivo, Digitaria sanguinalis; conditions: Preemergence, 1000 g ai/ha; 0 to 100 scale, 0 no effect, 100 complete control
Outline: as §3

morningglory [3] = assay: Test C postemergence; format: in vivo, Ipomoea coccinea; conditions: for Morningglory plant response rating: Postemergence, 31 g ai/ha, scale 0 to 100; for Plant response rating, Morningglory: postemergence
Description: as §1, §2

blackgrass = assay: Test C postemergence; format: in vivo, Alopecurus myosuroides; conditions: for Blackgrass plant response rating: Postemergence, 31 g ai/ha, scale 0 to 100; for Plant response rating, Blackgrass: postemergence
Description: as §1, §2

crabgrass, large [4] = assay: Test A postemergence; format: in vivo, Digitaria sanguinalis; conditions: Postemergence, 1000 g ai/ha; visual rating after approx. 10 days, 0 to 100 scale (0 no effect, 100 complete control)
Outline: as §3

foxtail, giant [5] = assay: Test A postemergence; format: in vivo, Setaria faberii; conditions: Postemergence, 1000 g ai/ha; visual rating after approx. 10 days, 0 to 100 scale (0 no effect, 100 complete control)
Outline: as §3

morningglory [6] = assay: Test A postemergence; format: in vivo, Ipomoea spp.; conditions: Postemergence, 1000 g ai/ha; visual rating after approx. 10 days, 0 to 100 scale (0 no effect, 100 complete control)
Outline: as §3

wheat = assay: Test A preemergence; format: in vivo, Triticum aestivum; conditions: Preemergence, 1000 g ai/ha; 0 to 100 scale, 0 no effect, 100 complete control
Outline: as §3

[7] = 250 g ai/ha, scale 0 to 100 (0 no effect, 100 complete control)
[8] = 62 g ai/ha, scale 0 to 100, 0 no effect, 100 complete control
[9] = 125 g ai/ha, scale 0 to 100, 0 no effect, 100 complete control

SMILES | Foxtail, Giant plant response rating (foxtail, giant [1]) | Plant response rating, Foxtail, Giant (foxtail, giant [1]; [7]) | Plant response rating, Foxtail, Giant (foxtail, giant [1]; [8]) | Plant response rating, Foxtail, Giant (foxtail, giant [1]; [9]) | Corn plant response rating (corn) | Crabgrass, Large plant response rating (crabgrass, large [2]) | Morningglory plant response rating (morningglory [3]) | Plant response rating, Morningglory (morningglory [3]; [7]) | Plant response rating, Morningglory (morningglory [3]; [8]) | Plant response rating, Morningglory (morningglory [3]; [9]) | Blackgrass plant response rating (blackgrass) | Plant response rating, Blackgrass (blackgrass; [7]) | Plant response rating, Blackgrass (blackgrass; [8]) | Plant response rating, Blackgrass (blackgrass; [9]) | Crabgrass, Large plant response rating (crabgrass, large [4]) | Foxtail, Giant plant response rating (foxtail, giant [5]) | Morningglory plant response rating (morningglory [6]) | Wheat plant response rating (wheat)
CCCNC(=O)c1cc(CC)n(Cc2cccc(OC(F)(F)F)c2)n1 [Compound 27] | 0 | 20 | 0 | 10 | 60 | 100 | 5 | 75 | 60 | 60 | 10 | 20 | 15 | 15 | 80 | 70 | 100 | 20
CCc1cc(C(=O)NCC(F)(F)F)nn1Cc1cccc(OC(F)(F)F)c1 [Compound 20] | 10 | 15 | 10 | 10 | 30 | 90 | 10 | 70 | 25 | 60 | 5 | 20 | 5 | 15 | 80 | 70 | 100 | 20
